In US12686673B2 (Blueprint Medicines Corporation, priority 2020, dated 2026):
Structures can show the parent of a compound that is named as a salt. Where two headings read alike, the source gives them in different places.

What was measured:
Format in all cases: cell-based
[1] = target: EGFR (H773insNPH) expressing Ba/F3 stable cell line (Homo sapiens, UniProt P00533, DUP771-773, cells depend on it); assay: Cellular proliferation (Alamar Blue) assay, EGFR H773insNPH Ba/F3; details: 72 hr, read-out: NPH IC50
Method: • 1. EGFR(D770_N771insSVD) expressing Ba/F3 stable cell line • 2. EGFR (A767_dupASV) expressing Ba/F3 stable cell line • 3. A431 cells • 4. EGFR (H773insNPH) expressing Ba/F3 stable cell line • 5. HER2 (A775_G776insYVMA) expressing Ba/F3 stable cell line Assay Procedure: • 1. Seed cells at 5000 for A431 and 15,000 cells for Ba/F3 in 100 μL/well in complete media (for A431: DMEM with […] and for Ba/F3 cells: RPMI with 10% FBS) in 96-well tissue culture plate. Leave outer wells without cells for background measurements. Incubate at 37 degree Celsius in […] humidified incubator for 16-18 hours. • 2. Add 0.025 ml of 5× concentration compound dilution or DMSO control. Final compound concentration range is 10-0.0005 μM prepared in 3-fold serial dilutions. Incubate for 72 hr at 37 degree Celsius in […] humidified incubator. • 3. Add 0.0125 ml Alamar Blue™ reagent to each well with multi-channel pipette and tap gently on each side of the plate to mix. Incubate for 3 hours at 37 degree Celsius in 5% CO2 humidified incubator. • 4. […] Data analysis was performed using XLfit 5.5.0.5.

A431 cells = assay: Cellular proliferation (Alamar Blue) assay, A431
[2] = target: EGFR (A767_dupASV) expressing Ba/F3 stable cell line (Homo sapiens, UniProt P00533, DUP767-769, cells depend on it); assay: Cellular proliferation (Alamar Blue) assay, EGFR A767_dupASV Ba/F3; details: 72 hr, read-out: A767 IC50
Procedure, shortened: (§1)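 Steps: plate 15,000 Ba/F3 cells/well in RPMI/10% FBS; rest 16-18 h, 37 °C; add compound at final 10-0.0005 μM (3-fold series) or DMSO; incubate 72 hr; add Alamar Blue; read after 3 h.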

[3] = target: EGFR(D770_N771insSVD) expressing Ba/F3 stable cell line (Homo sapiens, UniProt P00533, DUP768-770, cells depend on it); assay: Cellular proliferation (Alamar Blue) assay, EGFR D770_N771insSVD Ba/F3; details: 72 hr, read-out: D770 IC50
Procedure, shortened: as §1

[4] = target: HER2 (A775_G776insYVMA) expressing Ba/F3 stable cell line (Homo sapiens, UniProt P04626, DUP772-775, cells depend on it); assay: Cellular proliferation (Alamar Blue) assay, HER2 A775_G776insYVMA Ba/F3; details: 72 hr, read-out: YVMA IC50
Procedure, shortened: as §1

[5] = Homo sapiens, A-431; A431 cells, Alamar Blue, 72 hr; read-out: A431 IC50
[6] = Homo sapiens, A-431; A431 cells, 72 hr, Alamar Blue; read-out: A431 IC50

EGFR (H773insNPH) expressing Ba/F3 stable cell line, sequence (P00533 with tags, fused parts or gaps DUP771-773): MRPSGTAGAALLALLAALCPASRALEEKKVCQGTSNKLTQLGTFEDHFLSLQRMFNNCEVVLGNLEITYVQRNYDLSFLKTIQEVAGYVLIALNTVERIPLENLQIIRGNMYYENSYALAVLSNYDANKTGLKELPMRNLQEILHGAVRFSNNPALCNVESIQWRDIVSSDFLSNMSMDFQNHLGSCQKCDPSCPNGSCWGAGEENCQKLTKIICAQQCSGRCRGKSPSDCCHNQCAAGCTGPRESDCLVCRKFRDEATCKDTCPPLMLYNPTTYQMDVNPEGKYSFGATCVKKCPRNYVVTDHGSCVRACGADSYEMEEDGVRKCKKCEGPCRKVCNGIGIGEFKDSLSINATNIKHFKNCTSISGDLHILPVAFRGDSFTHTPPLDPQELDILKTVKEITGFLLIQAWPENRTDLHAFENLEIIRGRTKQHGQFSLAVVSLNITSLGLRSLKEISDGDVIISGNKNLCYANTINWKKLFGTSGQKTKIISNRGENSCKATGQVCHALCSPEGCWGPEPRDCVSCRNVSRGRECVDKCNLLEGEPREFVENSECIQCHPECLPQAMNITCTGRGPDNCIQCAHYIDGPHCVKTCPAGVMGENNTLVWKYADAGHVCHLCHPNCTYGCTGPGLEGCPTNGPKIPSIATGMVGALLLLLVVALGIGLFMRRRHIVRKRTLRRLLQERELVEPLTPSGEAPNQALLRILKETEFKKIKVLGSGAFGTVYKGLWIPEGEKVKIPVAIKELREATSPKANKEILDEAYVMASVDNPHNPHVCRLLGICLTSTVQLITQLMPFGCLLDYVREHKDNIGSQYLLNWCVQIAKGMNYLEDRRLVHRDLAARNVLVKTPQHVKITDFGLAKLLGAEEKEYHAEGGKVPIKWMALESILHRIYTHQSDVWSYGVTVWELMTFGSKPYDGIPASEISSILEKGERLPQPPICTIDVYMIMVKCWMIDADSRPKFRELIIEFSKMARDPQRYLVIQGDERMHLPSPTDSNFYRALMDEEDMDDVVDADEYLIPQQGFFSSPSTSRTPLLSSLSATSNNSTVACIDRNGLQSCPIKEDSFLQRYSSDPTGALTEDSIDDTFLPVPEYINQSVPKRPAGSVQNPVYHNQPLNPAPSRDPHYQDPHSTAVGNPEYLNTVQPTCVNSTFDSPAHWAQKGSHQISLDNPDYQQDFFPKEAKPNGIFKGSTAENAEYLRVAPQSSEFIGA
EGFR (A767_dupASV) expressing Ba/F3 stable cell line, sequence (P00533 with tags, fused parts or gaps DUP767-769): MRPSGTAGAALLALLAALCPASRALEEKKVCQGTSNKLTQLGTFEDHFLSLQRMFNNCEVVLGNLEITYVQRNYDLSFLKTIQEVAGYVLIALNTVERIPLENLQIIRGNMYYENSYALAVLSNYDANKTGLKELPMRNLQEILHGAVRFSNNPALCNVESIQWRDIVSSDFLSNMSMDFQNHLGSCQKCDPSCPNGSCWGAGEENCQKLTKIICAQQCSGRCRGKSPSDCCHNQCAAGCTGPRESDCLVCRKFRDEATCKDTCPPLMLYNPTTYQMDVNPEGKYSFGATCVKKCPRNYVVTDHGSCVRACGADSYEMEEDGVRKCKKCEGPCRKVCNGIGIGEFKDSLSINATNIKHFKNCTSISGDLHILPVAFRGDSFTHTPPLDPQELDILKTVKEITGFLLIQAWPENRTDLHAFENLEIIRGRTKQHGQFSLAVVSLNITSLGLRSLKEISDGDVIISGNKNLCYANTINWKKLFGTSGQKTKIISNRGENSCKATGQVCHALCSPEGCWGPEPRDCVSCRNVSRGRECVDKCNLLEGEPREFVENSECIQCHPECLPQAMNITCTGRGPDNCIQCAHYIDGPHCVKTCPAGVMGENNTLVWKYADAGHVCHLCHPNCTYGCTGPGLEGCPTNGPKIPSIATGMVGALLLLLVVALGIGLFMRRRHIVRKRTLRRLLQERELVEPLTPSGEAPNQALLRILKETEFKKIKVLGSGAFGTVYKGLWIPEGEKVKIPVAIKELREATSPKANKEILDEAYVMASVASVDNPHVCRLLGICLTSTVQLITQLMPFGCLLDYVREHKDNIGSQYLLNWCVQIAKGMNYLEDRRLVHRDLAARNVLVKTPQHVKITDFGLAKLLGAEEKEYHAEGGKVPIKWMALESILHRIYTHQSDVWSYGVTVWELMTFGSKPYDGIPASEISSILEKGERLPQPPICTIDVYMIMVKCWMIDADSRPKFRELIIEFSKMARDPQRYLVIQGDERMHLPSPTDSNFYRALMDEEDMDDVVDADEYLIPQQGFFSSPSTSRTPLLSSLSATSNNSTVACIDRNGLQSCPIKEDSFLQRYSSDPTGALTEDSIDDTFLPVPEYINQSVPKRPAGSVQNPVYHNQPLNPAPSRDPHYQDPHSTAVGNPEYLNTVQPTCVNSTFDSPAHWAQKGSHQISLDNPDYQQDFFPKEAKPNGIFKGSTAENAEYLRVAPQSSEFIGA
EGFR(D770_N771insSVD) expressing Ba/F3 stable cell line, sequence (P00533 with tags, fused parts or gaps DUP768-770): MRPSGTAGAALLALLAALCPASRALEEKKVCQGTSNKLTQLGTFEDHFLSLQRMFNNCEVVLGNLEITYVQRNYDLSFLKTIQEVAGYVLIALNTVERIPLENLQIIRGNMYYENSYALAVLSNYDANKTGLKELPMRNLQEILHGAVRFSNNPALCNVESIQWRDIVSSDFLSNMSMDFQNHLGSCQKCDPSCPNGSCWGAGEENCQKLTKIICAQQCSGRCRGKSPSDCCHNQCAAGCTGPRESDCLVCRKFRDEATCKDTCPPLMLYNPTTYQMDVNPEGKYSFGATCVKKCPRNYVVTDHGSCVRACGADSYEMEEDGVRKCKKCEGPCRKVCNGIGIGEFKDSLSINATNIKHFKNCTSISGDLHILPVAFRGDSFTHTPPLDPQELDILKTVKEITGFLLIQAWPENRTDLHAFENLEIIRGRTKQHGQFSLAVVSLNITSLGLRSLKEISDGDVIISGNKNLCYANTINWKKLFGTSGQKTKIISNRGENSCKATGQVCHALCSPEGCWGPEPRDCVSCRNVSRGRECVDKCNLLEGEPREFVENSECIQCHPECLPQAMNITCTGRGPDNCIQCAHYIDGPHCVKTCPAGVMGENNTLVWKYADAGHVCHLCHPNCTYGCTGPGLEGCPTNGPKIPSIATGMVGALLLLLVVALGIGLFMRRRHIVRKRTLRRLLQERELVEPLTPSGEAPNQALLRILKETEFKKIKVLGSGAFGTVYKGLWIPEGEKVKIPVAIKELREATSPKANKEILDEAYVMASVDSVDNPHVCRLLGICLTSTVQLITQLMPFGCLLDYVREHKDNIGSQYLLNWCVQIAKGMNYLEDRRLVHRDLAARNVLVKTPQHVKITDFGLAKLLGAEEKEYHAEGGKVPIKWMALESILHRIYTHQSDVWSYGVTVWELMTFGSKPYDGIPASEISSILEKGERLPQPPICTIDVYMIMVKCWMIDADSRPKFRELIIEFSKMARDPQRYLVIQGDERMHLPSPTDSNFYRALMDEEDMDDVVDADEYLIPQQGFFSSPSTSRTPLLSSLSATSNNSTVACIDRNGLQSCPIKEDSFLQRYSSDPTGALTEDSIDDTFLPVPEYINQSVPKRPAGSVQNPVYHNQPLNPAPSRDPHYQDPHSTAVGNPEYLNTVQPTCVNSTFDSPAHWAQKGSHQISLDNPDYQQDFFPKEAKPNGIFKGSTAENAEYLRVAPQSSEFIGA
HER2 (A775_G776insYVMA) expressing Ba/F3 stable cell line, sequence (P04626 with tags, fused parts or gaps DUP772-775): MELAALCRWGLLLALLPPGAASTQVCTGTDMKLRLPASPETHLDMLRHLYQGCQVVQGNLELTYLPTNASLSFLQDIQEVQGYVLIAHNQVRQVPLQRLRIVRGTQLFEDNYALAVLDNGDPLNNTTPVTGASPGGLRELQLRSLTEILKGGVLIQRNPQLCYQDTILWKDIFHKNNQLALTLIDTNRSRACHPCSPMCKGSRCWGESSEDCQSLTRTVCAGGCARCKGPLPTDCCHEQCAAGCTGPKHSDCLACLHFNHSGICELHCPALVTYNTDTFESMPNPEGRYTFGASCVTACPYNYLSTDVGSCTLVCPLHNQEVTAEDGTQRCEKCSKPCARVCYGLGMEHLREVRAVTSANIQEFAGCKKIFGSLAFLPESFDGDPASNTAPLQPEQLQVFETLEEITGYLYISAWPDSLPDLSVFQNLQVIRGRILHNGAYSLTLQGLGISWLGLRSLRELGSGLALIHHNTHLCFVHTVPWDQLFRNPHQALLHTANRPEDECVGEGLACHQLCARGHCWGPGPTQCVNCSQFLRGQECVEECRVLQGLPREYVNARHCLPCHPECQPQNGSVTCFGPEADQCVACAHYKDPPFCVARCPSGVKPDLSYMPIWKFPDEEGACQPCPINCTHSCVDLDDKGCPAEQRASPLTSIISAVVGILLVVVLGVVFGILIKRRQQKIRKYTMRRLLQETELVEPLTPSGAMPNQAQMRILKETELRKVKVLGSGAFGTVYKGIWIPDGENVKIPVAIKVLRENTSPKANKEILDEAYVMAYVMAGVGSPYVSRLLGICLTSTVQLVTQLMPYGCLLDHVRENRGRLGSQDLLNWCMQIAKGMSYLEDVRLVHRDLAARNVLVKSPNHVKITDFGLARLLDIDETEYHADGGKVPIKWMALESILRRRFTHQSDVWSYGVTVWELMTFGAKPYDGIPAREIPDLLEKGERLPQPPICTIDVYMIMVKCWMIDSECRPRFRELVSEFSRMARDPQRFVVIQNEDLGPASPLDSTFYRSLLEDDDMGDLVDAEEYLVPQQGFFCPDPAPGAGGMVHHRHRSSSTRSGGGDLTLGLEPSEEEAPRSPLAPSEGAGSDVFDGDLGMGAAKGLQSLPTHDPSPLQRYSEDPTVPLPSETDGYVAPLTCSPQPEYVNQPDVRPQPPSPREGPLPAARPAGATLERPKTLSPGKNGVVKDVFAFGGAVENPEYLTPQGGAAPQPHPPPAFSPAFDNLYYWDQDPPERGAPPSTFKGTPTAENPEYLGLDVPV

GI50 [1] | IC50 (A431 cells; [5]) | GI50 [2] | GI50 [3] | GI50 [4] | IC50 (A431 cells; [6]) | SMILES
4470 nM | > 10000 nM | 9920 nM | > 10000 nM |  |  | C=C(F)C(=O)Nc1ccc(F)c(Nc2nc(Nc3cnn(C)c3)ncc2Cl)c1 [Compound 23, N-(3-((5-chloro-2-((1-methyl-1H-pyrazol-4-yl)amino)pyrimidin-4-yl)amino)-4-fluorophenyl)-2-fluoroacrylamide]
> 10000 nM | > 10000 nM | 9310 nM | 9520 nM |  |  | C=CC(=O)Nc1cccc(Nc2nc(Nc3cnn(C)c3)ncc2C(=O)NC(C)c2ccccc2)c1 (stereo not shown) [Compound 34, 4-((3-acrylamidophenyl)amino)-2-((1-methyl-1H-pyrazol-4-yl)amino)-N-(1-phenylethyl)pyrimidine-5-carboxamide]
 | 8020 nM | > 10000 nM | 9480 nM | 7490 nM |  | CN(C)C/C=C/C(=O)Nc1ccc(Cl)c(Nc2nc(Nc3cnn(C)c3)ncc2Cl)c1 [Compound 9, (E)-N-(4-chloro-3-((5-chloro-2-((1-methyl-1H-pyrazol-4-yl)amino)pyrimidin-4-yl)amino)phenyl)-4-(dimethylamino)but-2-enamide]
 | 8730 nM | 995 nM | 3270 nM | 3220 nM |  | Cn1cc(Nc2ncc(Cl)c(Nc3cc(NC(=O)/C=C/CF)ccc3F)n2)cn1 [Compound 7, (E)-N-(3-((5-chloro-2-((1-methyl-1H-pyrazol-4-yl)amino)pyrimidin-4-yl)amino)-4-fluorophenyl)-4-fluorobut-2-enamide]
 |  | 44 nM | 35 nM | 120 nM | 36 nM | C=CC(=O)Nc1ccc(F)c(Nc2nc(Nc3cnn(CCO)c3)ncc2-c2ccc(Br)cc2)c1 [Compound 206, N-(3-((5-(4-bromophenyl)-2-((1-(2-hydroxyethyl)-1H-pyrazol-4-yl)amino)pyrimidin-4-yl)amino)-4-fluorophenyl)acrylamide]
 |  | 411 nM | 923 nM | 755 nM | 1020 nM | C=CC(=O)Nc1ccc(F)c(Nc2nc(Nc3cnn(C)c3)ncc2Br)c1 [Compound 256, N-(3-((5-bromo-2-((1-methyl-1H-pyrazol-4-yl)amino)pyrimidin-4-yl)amino)-4-fluorophenyl)acrylamide]
 |  | 261 nM | 101 nM | 1050 nM | 123 nM | [2H]C([2H])=CC(=O)Nc1ccc(F)c(Nc2nc(Nc3cn(C)nc3Cl)ncc2-c2ccc(C(F)(F)F)cc2)c1 [Compound 249, N-(3-((2-((3-chloro-1-methyl-1H-pyrazol-4-yl)amino)-5-(4-(trifluoromethyl)phenyl)pyrimidin-4-yl)amino)-4-fluorophenyl)acrylamide-3,3-d2]

Second part, the compound before the results:

SMILES | GI50 [1] | IC50 (A431 cells; [5]) | GI50 [2] | GI50 [3] | GI50 [4] | IC50 (A431 cells; [6])
CN(C)C/C=C/C(=O)Nc1cccc(Nc2nc(Nc3cn(C)nc3Cl)ncc2C(F)(F)F)c1 [Compound 54, (E)-N-(3-((2-((3-chloro-1-methyl-1H-pyrazol-4-yl)amino)-5-(trifluoromethyl)pyrimidin-4-yl)amino)phenyl)-4-(dimethylamino)but-2-enamide] | 380 nM | 4530 nM | 1040 nM | 296 nM |  | 
C=CC(=O)Nc1ccc(F)c(Nc2nc(Nc3cnn(CC(C)(C)O)c3)ncc2Cl)c1 [Compound 26, N-(3-((5-chloro-2-((1-(2-hydroxy-2-methylpropyl)-1H-pyrazol-4-yl)amino)pyrimidin-4-yl)amino)-4-fluorophenyl)acrylamide] | 2090 nM | 7410 nM | 2450 nM | 4860 nM |  | 
C=CC(=O)Nc1ccc(F)c(Nc2nc(Nc3cnn(C)c3)ncc2-c2cnc(C(F)(F)F)nc2)c1 [Compound 123, N-(4-fluoro-3-((2-((1-methyl-1H-pyrazol-4-yl)amino)-2′-(trifluoromethyl)-[5,5′-bipyrimidin]-4-yl)amino)phenyl)acrylamide] | 30 nM |  | 16 nM | 24 nM |  | 
C=CC(=O)Nc1ccc(F)c(N(C)c2nc(Nc3cnn(C)c3)ncc2-c2ccc(C(F)(F)F)cc2)c1 [Compound 228, N-(4-fluoro-3-(methyl(2-((1-methyl-1H-pyrazol-4-yl)amino)-5-(4-(trifluoromethyl)phenyl)pyrimidin-4-yl)amino)phenyl)acrylamide] |  |  | 891 nM | 952 nM | 1250 nM | 4120 nM
C=CC(=O)Nc1ccc(Cl)c(Nc2ccnc(Nc3cnn(C)c3)n2)c1 [Compound 165, N4-(5-amino-2-chlorophenyl)-N2-(1-methyl-1H-pyrazol-4-yl)pyrimidine-2,4-diamineprop-2-enoyl chloride] |  | > 10000 nM | > 10000 nM | > 10000 nM | 9930 nM | 
CN(C)C/C=C/C(=O)Nc1ccc(F)c(Nc2nc(Nc3cnn(C)c3)ncc2C#Cc2ccccc2)c1 [Compound 162, (E)-4-(dimethylamino)-N-(4-fluoro-3-((2-((1-methyl-1H-pyrazol-4-yl)amino)-5-(phenylethynyl)pyrimidin-4-yl)amino)phenyl)but-2-enamide] |  | 2850 nM | 656 nM | 1850 nM | 1880 nM | 
C=CC(=O)Nc1ccc(F)c(Nc2nc(Nc3cnn(C)c3)ncc2-c2ccc(C(F)(F)C(F)(F)F)cc2)c1 [Compound 296, N-(4-fluoro-3-((2-((1-methyl-1H-pyrazol-4-yl)amino)-5-(4-(perfluoroethyl)phenyl)pyrimidin-4-yl)amino)phenyl)acrylamide] |  |  | 106 nM | 84 nM | 971 nM | 32 nM
CN(C)C/C=C/C(=O)Nc1cccc(Nc2nc(Nc3cnn(C)c3)ncc2CNc2ccccc2)c1 [Compound 17, (E)-4-(dimethylamino)-N-(3-((2-((1-methyl-1H-pyrazol-4-yl)amino)-5-((phenylamino)methyl)pyrimidin-4-yl)amino)phenyl)but-2-enamide] |  | 7740 nM | 1020 nM | 1530 nM | 1880 nM | 
C=CC(=O)Nc1ccc(F)c(Nc2nc(Nc3cn(C)nc3C(F)(F)F)ncc2-c2ccc(C(F)(F)F)cc2)c1 [Compound 146, N-(4-fluoro-3-((2-((1-methyl-3-(trifluoromethyl)-1H-pyrazol-4-yl)amino)-5-(4-(trifluoromethyl)phenyl)pyrimidin-4-yl)amino)phenyl)acrylamide trifluoroacetate] |  | 274 nM | 279 nM | 342 nM | 6130 nM | 
C=CC(=O)Nc1ccc(-c2ccccc2)c(Nc2ccnc(Nc3cnn(C)c3)n2)c1 [Compound 175, N-[2-({2-[(1-methyl-1H-pyrazol-4-yl)amino]pyrimidin-4-yl}amino)-[1,1′-biphenyl]-4-yl]prop-2-enamide] |  | > 10000 nM | > 10000 nM | > 10000 nM | > 10000 nM | 
C=CC(=O)Nc1ccc(Cl)c(Nc2nc(Nc3cnn(C)c3)ncc2Cl)c1 [Compound 8, N-(4-chloro-3-((5-chloro-2-((1-methyl-1H-pyrazol-4-yl)amino)pyrimidin-4-yl)amino)phenyl)acrylamide] |  | 8580 nM | 7580 nM | 7450 nM | 4990 nM | 
C#CC(=O)Nc1ccc(F)c(Nc2nc(Nc3cnn(C)c3)ncc2-c2ccc(C(F)(F)F)cc2)c1 [Compound 254, N-[4-fluoro-3-({2-[(1-methyl-1H-pyrazol-4-yl)amino]-5-[4-(trifluoromethyl)phenyl]pyrimidin-4-yl}amino)phenyl] prop-2-ynamide] |  |  | 9470 nM | 8460 nM | 8670 nM | 1000 nM
C=CC(=O)Nc1ccc(F)c(Nc2nc(Nc3cnn(C)c3)ncc2-c2ccc(Cl)nc2)c1 [Compound 101, N-(3-((5-(6-chloropyridin-3-yl)-2-((1-methyl-1H-pyrazol-4-yl)amino)pyrimidin-4-yl)amino)-4-fluorophenyl)acrylamide] | 30 nM | 56 nM | 13 nM |  |  | 
C=CC(=O)Nc1ccc(F)c(Nc2nc(Nc3cnn(C)c3)ncc2-c2ccc(C#N)cc2)c1 [Compound 62, N-(3-((5-(4-cyanophenyl)-2-((1-methyl-1H-pyrazol-4-yl)amino)pyrimidin-4-yl)amino)-4-fluorophenyl)acrylamide] |  | > 10000 nM | 307 nM | 323 nM | 2590 nM | 
